Assay: xn = mol fraction of the nth substance listed

COCCOCCOCCOC + CCCO
viscosity [mPa·s]
Conditions | 298.15 K | 308.15 K
101 kPa, x1 = 0.0386 | 1.777 | 1.406
101 kPa, x1 = 0.0615 | 1.714 | 1.363
101 kPa, x1 = 0.076 | 1.697 | 1.34
101 kPa, x1 = 0.1064 | 1.636 | 1.318
101 kPa, x1 = 0.1595 | 1.584 | 1.28
101 kPa, x1 = 0.2157 | 1.577 | 1.288
101 kPa, x1 = 0.2499 | 1.572 | 1.274
101 kPa, x1 = 0.2631 | 1.57 | 1.275
101 kPa, x1 = 0.3355 | 1.594 | 1.288
101 kPa, x1 = 0.422 | 1.607 | 1.315
101 kPa, x1 = 0.4701 | 1.635 | 1.335
101 kPa, x1 = 0.5148 | 1.654 | 1.363
101 kPa, x1 = 0.5848 | 1.693 | 1.385
101 kPa, x1 = 0.6662 | 1.743 | 1.442
101 kPa, x1 = 0.7126 | 1.772 | 1.456
101 kPa, x1 = 0.7778 | 1.826 | 1.483
101 kPa, x1 = 0.8098 | 1.853 | 1.508
101 kPa, x1 = 0.8789 | 1.89 | 1.536
101 kPa, x1 = 0.9504 | 1.942 | 1.58
101 kPa, x1 = 0.9719 | 1.956 | 1.592
101.33 kPa, x1 = 0.0081 | 1.918 | –
101.33 kPa, x1 = 0.0165 | 1.884 | –
101.33 kPa, x1 = 0.0245 | 1.856 | –
101.33 kPa, x1 = 0.0336 | 1.824 | –
101.33 kPa, x1 = 0.048 | 1.781 | –
101.33 kPa, x1 = 0.0692 | 1.725 | –
101.33 kPa, x1 = 0.0946 | 1.67 | –
101.33 kPa, x1 = 0.1327 | 1.614 | –
101.33 kPa, x1 = 0.1747 | 1.573 | –
101.33 kPa, x1 = 0.2259 | 1.549 | –
101.33 kPa, x1 = 0.2757 | 1.544 | –
101.33 kPa, x1 = 0.3226 | 1.548 | –
101.33 kPa, x1 = 0.3691 | 1.563 | –
101.33 kPa, x1 = 0.4157 | 1.578 | –
101.33 kPa, x1 = 0.4606 | 1.598 | –
101.33 kPa, x1 = 0.5153 | 1.625 | –
101.33 kPa, x1 = 0.5714 | 1.653 | –
101.33 kPa, x1 = 0.6283 | 1.684 | –
101.33 kPa, x1 = 0.6732 | 1.713 | –
101.33 kPa, x1 = 0.7227 | 1.743 | –
101.33 kPa, x1 = 0.7726 | 1.778 | –
101.33 kPa, x1 = 0.8162 | 1.812 | –
101.33 kPa, x1 = 0.8625 | 1.848 | –
101.33 kPa, x1 = 0.9112 | 1.888 | –
101.33 kPa, x1 = 0.9347 | 1.904 | –
101.33 kPa, x1 = 0.9568 | 1.919 | –
101.33 kPa, x1 = 0.9775 | 1.935 | –

COCCOCCOCCOC + CCCOC(C)=O
viscosity [mPa·s], 101.3 kPa
Conditions | 298.15 K | 308.15 K | 318.15 K
x1 = 0.005 | 0.558 | 0.492 | 0.442
x1 = 0.0351 | 0.589 | 0.517 | 0.465
x1 = 0.0513 | 0.607 | 0.532 | 0.476
x1 = 0.0859 | 0.643 | 0.562 | 0.503
x1 = 0.1416 | 0.709 | 0.613 | 0.544
x1 = 0.1846 | 0.757 | 0.652 | 0.577
x1 = 0.2654 | 0.857 | 0.734 | 0.647
x1 = 0.3185 | 0.922 | 0.785 | 0.683
x1 = 0.3767 | 1.009 | 0.848 | 0.733
x1 = 0.426 | 1.078 | 0.902 | 0.784
x1 = 0.5278 | 1.224 | 1.019 | 0.862
x1 = 0.5868 | 1.313 | 1.086 | 0.921
x1 = 0.627 | 1.388 | 1.141 | –
x1 = 0.6327 | – | – | 0.964
x1 = 0.69 | 1.486 | 1.22 | 1.025
x1 = 0.7402 | 1.567 | 1.282 | 1.077
x1 = 0.8031 | 1.67 | 1.365 | 1.137
x1 = 0.8451 | 1.744 | 1.427 | 1.177
x1 = 0.8711 | 1.784 | 1.472 | 1.207
x1 = 0.9467 | 1.9 | 1.542 | 1.276
x1 = 0.9582 | 1.91 | 1.552 | 1.285
x1 = 0.979 | 1.939 | 1.513 | 1.302

CC(C)(C)O + CCO
303.2 K, 101.33 kPa
Conditions | viscosity [mPa·s]
x2 = 0.05 | 3.256
x2 = 0.1 | 3.156
x2 = 0.15 | 3.039
x2 = 0.2 | 2.914
x2 = 0.3 | 2.645
x2 = 0.4 | 2.36
x2 = 0.5 | 2.07
x2 = 0.6 | 1.793
x2 = 0.7 | 1.548
x2 = 0.8 | 1.336
x2 = 0.85 | 1.239
x2 = 0.9 | 1.147
x2 = 0.95 | 1.059

CN(CCO)CCO + CCO
313 K, 101.33 kPa
Conditions | viscosity [mPa·s]
x1 = 0.0079 | 0.832
x1 = 0.02 | 0.888
x1 = 0.0434 | 0.998
x1 = 0.216 | 2.132
x1 = 0.2986 | 2.967
x1 = 0.3977 | 4.196
x1 = 0.5237 | 7.05
x1 = 0.5978 | 9.003
x1 = 0.7028 | 12.92
x1 = 0.8085 | 17.79
x1 = 0.908 | 23.88

C[NH+](CCO)CCO.O=C[O-] + CCO
viscosity [mPa·s], 101 kPa
Conditions | 293.15 K | 303.15 K | 313.15 K | 323.15 K
x1 = 0.0643 | 32.41 | 17.44 | 8.445 | 5.799
x1 = 0.1074 | 52.86 | 25.09 | 13.49 | 9.254
x1 = 0.2133 | 106.7 | 51.03 | 27.25 | 18.63
x1 = 0.3117 | 159.3 | 78.2 | 41.19 | 28.12
x1 = 0.417 | 218.9 | 107.6 | 57.4 | 39.18
x1 = 0.5197 | 281.6 | 137.2 | 74.93 | 51.06
x1 = 0.6178 | 348.2 | 168.6 | 93.84 | 63.73
x1 = 0.7224 | 434.6 | 211.7 | 118.3 | 79.69
x1 = 0.8275 | 534.4 | 263.6 | 145.7 | 97.16
x1 = 0.9161 | 630.3 | 312.3 | 170 | 112.2
x1 = 0.95 | 665 | 328.9 | 178.8 | 117.6

Oc1ccc2ccccc2c1 + CCO
viscosity [mPa·s], 101 kPa
Conditions | x1 = 0.03 | x1 = 0.06 | x1 = 0.09 | x1 = 0.12 | x1 = 0.15
293.15 K | 1.428 | 1.684 | 1.969 | 2.28 | 2.641
303.15 K | 1.162 | 1.351 | 1.588 | 1.836 | 2.093
313.15 K | 0.975 | 1.125 | 1.305 | 1.487 | 1.669
323.15 K | 0.801 | 0.92 | 1.063 | 1.217 | 1.374

COCCOCCOCCO + CCOC(=O)OCC
298.15 K, 101.33 kPa
Conditions | viscosity [mPa·s]
x1 = 0.0084 | 0.762
x1 = 0.017 | 0.775
x1 = 0.0385 | 0.809
x1 = 0.0758 | 0.874
x1 = 0.0923 | 0.905
x1 = 0.1232 | 0.967
x1 = 0.1538 | 1.035
x1 = 0.1917 | 1.126
x1 = 0.2331 | 1.242
x1 = 0.2893 | 1.408
x1 = 0.326 | 1.528
x1 = 0.3668 | 1.676
x1 = 0.41 | 1.845
x1 = 0.4336 | 1.944
x1 = 0.4506 | 2.027
x1 = 0.4939 | 2.224
x1 = 0.5117 | 2.316
x1 = 0.5615 | 2.578
x1 = 0.603 | 2.819
x1 = 0.676 | 3.303
x1 = 0.7411 | 3.785
x1 = 0.8077 | 4.364
x1 = 0.8846 | 5.15
x1 = 0.925 | 5.608

COCCOCCOCCOC + CCOC(=O)OCC
298.15 K, 101.33 kPa
Conditions | viscosity [mPa·s]
x1 = 0.0103 | 0.759
x1 = 0.0175 | 0.767
x1 = 0.0246 | 0.775
x1 = 0.0367 | 0.788
x1 = 0.0576 | 0.813
x1 = 0.0787 | 0.837
x1 = 0.0958 | 0.856
x1 = 0.119 | 0.879
x1 = 0.1509 | 0.913
x1 = 0.1983 | 0.966
x1 = 0.2499 | 1.021
x1 = 0.3024 | 1.081
x1 = 0.3233 | 1.105
x1 = 0.3543 | 1.142
x1 = 0.4034 | 1.199
x1 = 0.4614 | 1.268
x1 = 0.5022 | 1.324
x1 = 0.552 | 1.386
x1 = 0.6112 | 1.463
x1 = 0.6561 | 1.519
x1 = 0.7044 | 1.583
x1 = 0.7371 | 1.624
x1 = 0.7905 | 1.693
x1 = 0.8464 | 1.764
x1 = 0.9175 | 1.85
x1 = 0.951 | 1.894

COCCOCCOCCO + CCOC(C)(C)C
viscosity [mPa·s], 101 kPa
Conditions | 293.15 K | 298.15 K | 303.15 K
x2 = 0.0504 | 6.269 | 5.479 | 4.777
x2 = 0.1 | 5.458 | 4.8 | 4.209
x2 = 0.1509 | 4.734 | 4.186 | 3.689
x2 = 0.2025 | 4.101 | 3.643 | 3.225
x2 = 0.2489 | 3.607 | 3.216 | 2.859
x2 = 0.3007 | 3.129 | 2.801 | 2.501
x2 = 0.3511 | 2.729 | 2.453 | 2.199
x2 = 0.3999 | 2.394 | 2.159 | 1.944
x2 = 0.4508 | 2.091 | 1.893 | 1.712
x2 = 0.5001 | 1.837 | 1.669 | 1.516
x2 = 0.5493 | 1.616 | 1.475 | 1.345
x2 = 0.6 | 1.418 | 1.3 | 1.192
x2 = 0.6503 | 1.248 | 1.149 | 1.058
x2 = 0.6998 | 1.102 | 1.019 | 0.943
x2 = 0.7491 | 0.974 | 0.906 | 0.842
x2 = 0.7999 | 0.86 | 0.803 | 0.751
x2 = 0.8509 | 0.759 | 0.712 | 0.669
x2 = 0.9001 | 0.674 | 0.635 | 0.6
x2 = 0.9498 | 0.599 | 0.566 | 0.536
